{"source": "the supplement of paper PMC10307832", "experiment_in_all_cases": "relative viability (nuclei count vs DMSO), 5 days (fraction); higher = more cells survive", "key": {"COR-L23": {"system": "COR-L23", "outline": "(§1)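 Five library-drug doses in √10 steps were combined with a fixed anchor-drug dose, or a single drug was given alone, by pin tool to lung cancer cell lines in 1536-well plates the day after seeding. Nuclei were stained and counted after 5 days. Relative viability is the nuclei count in treated wells over that in vehicle wells, taken as the median of duplicate plates.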"}, "NCI-H2023": {"system": "NCI-H2023", "outline": "as §1"}, "BEN": {"system": "BEN", "outline": "as §1"}, "NCI-H1975": {"system": "NCI-H1975", "outline": "as §1"}, "NCI-H1734": {"system": "NCI-H1734", "outline": "as §1"}, "NCI-H460": {"system": "NCI-H460", "outline": "as §1"}, "NCI-H1437": {"system": "NCI-H1437", "outline": "as §1"}, "NCI-H1563": {"system": "NCI-H1563", "outline": "as §1"}, "CAL-12T": {"system": "CAL-12T", "outline": "as §1"}, "NCI-H1355": {"system": "NCI-H1355", "outline": "as §1"}, "NCI-H838": {"system": "NCI-H838", "outline": "as §1"}, "SK-LU-1": {"system": "SK-LU-1", "outline": "as §1"}, "LOU-NH91": {"system": "LOU-NH91", "outline": "as §1"}, "NCI-H1793": {"system": "NCI-H1793", "outline": "as §1"}, "NCI-H2085": {"system": "NCI-H2085", "outline": "as §1"}, "NCI-H358": {"system": "NCI-H358", "outline": "as §1"}, "NCI-H441": {"system": "NCI-H441", "outline": "as §1"}, "NCI-H1651": {"system": "NCI-H1651", "outline": "as §1"}, "HCC-366": {"system": "HCC-366", "outline": "as §1"}, "LU99A": {"system": "LU99A", "outline": "as §1"}}}
{"smiles": "COc1cc2nccc(Oc3ccc(NC(=O)Nc4cc(C)on4)c(Cl)c3)c2cc1OC", "note": "[Tivozanib] + C[C@]1(O)C[C@@H](c2nc(-c3ccc4ccc(-c5ccccc5)nc4c3)c3c(N)nccn32)C1 [Linsitinib] (partner 1 µM)", "values": [{"measurement": "relative viability", "setting": "COR-L23; first compound 0.005 µM", "result": 0.848}, {"measurement": "relative viability", "setting": "COR-L23; first compound 0.01581 µM", "result": 0.886}, {"measurement": "relative viability", "setting": "COR-L23; first compound 0.05 µM", "result": 0.994}, {"measurement": "relative viability", "setting": "COR-L23; first compound 0.1581 µM", "result": 0.887}, {"measurement": "relative viability", "setting": "COR-L23; first compound 0.5 µM", "result": 0.819}, {"measurement": "relative viability", "setting": "NCI-H2023; first compound 0.005 µM", "result": 0.612}, {"measurement": "relative viability", "setting": "NCI-H2023; first compound 0.01581 µM", "result": 0.669}, {"measurement": "relative viability", "setting": "NCI-H2023; first compound 0.05 µM", "result": 0.761}, {"measurement": "relative viability", "setting": "NCI-H2023; first compound 0.1581 µM", "result": 0.671}, {"measurement": "relative viability", "setting": "NCI-H2023; first compound 0.5 µM", "result": 0.715}, {"measurement": "relative viability", "setting": "BEN; first compound 0.005 µM", "result": 0.995}, {"measurement": "relative viability", "setting": "BEN; first compound 0.01581 µM", "result": 0.871}, {"measurement": "relative viability", "setting": "BEN; first compound 0.05 µM", "result": 0.984}, {"measurement": "relative viability", "setting": "BEN; first compound 0.5 µM", "result": 0.912}, {"measurement": "relative viability", "setting": "NCI-H1975; first compound 0.005 µM", "result": 0.976}, {"measurement": "relative viability", "setting": "NCI-H1975; first compound 0.01581 µM", "result": 0.893}, {"measurement": "relative viability", "setting": "NCI-H1975; first compound 0.05 µM", "result": 0.956}, {"measurement": "relative viability", "setting": "NCI-H1975; first compound 0.1581 µM", "result": 0.784}, {"measurement": "relative viability", "setting": "NCI-H1975; first compound 0.5 µM", "result": 0.916}, {"measurement": "relative viability", "setting": "NCI-H1734; first compound 0.005 µM", "result": 0.847}, {"measurement": "relative viability", "setting": "NCI-H1734; first compound 0.01581 µM", "result": 0.795}, {"measurement": "relative viability", "setting": "NCI-H1734; first compound 0.05 µM", "result": 1.03}, {"measurement": "relative viability", "setting": "NCI-H1734; first compound 0.1581 µM", "result": 0.674}, {"measurement": "relative viability", "setting": "NCI-H1734; first compound 0.5 µM", "result": 0.858}, {"measurement": "relative viability", "setting": "NCI-H460; first compound 0.005 µM", "result": 0.783}, {"measurement": "relative viability", "setting": "NCI-H460; first compound 0.01581 µM", "result": 0.806}, {"measurement": "relative viability", "setting": "NCI-H460; first compound 0.05 µM", "result": 0.858}, {"measurement": "relative viability", "setting": "NCI-H460; first compound 0.1581 µM", "result": 0.871}, {"measurement": "relative viability", "setting": "NCI-H460; first compound 0.5 µM", "result": 0.733}, {"measurement": "relative viability", "setting": "NCI-H1437; first compound 0.005 µM", "result": 1.02}, {"measurement": "relative viability", "setting": "NCI-H1437; first compound 0.01581 µM", "result": 0.989}, {"measurement": "relative viability", "setting": "NCI-H1437; first compound 0.05 µM", "result": 0.969}, {"measurement": "relative viability", "setting": "NCI-H1437; first compound 0.1581 µM", "result": 0.947}, {"measurement": "relative viability", "setting": "NCI-H1437; first compound 0.5 µM", "result": 1}, {"measurement": "relative viability", "setting": "NCI-H1563; first compound 0.005 µM", "result": 1.19}, {"measurement": "relative viability", "setting": "NCI-H1563; first compound 0.01581 µM", "result": 1.32}, {"measurement": "relative viability", "setting": "NCI-H1563; first compound 0.05 µM", "result": 1.24}, {"measurement": "relative viability", "setting": "NCI-H1563; first compound 0.1581 µM", "result": 1.12}, {"measurement": "relative viability", "setting": "NCI-H1563; first compound 0.5 µM", "result": 1.22}, {"measurement": "relative viability", "setting": "CAL-12T; first compound 0.005 µM", "result": 0.761}, {"measurement": "relative viability", "setting": "CAL-12T; first compound 0.01581 µM", "result": 0.666}, {"measurement": "relative viability", "setting": "CAL-12T; first compound 0.05 µM", "result": 0.717}, {"measurement": "relative viability", "setting": "CAL-12T; first compound 0.1581 µM", "result": 0.713}, {"measurement": "relative viability", "setting": "CAL-12T; first compound 0.5 µM", "result": 0.816}, {"measurement": "relative viability", "setting": "NCI-H1355; first compound 0.005 µM", "result": 0.776}, {"measurement": "relative viability", "setting": "NCI-H1355; first compound 0.01581 µM", "result": 0.809}, {"measurement": "relative viability", "setting": "NCI-H1355; first compound 0.05 µM", "result": 0.895}, {"measurement": "relative viability", "setting": "NCI-H1355; first compound 0.5 µM", "result": 0.844}, {"measurement": "relative viability", "setting": "NCI-H838; first compound 0.005 µM", "result": 0.963}, {"measurement": "relative viability", "setting": "NCI-H838; first compound 0.01581 µM", "result": 1.04}, {"measurement": "relative viability", "setting": "NCI-H838; first compound 0.05 µM", "result": 1.11}, {"measurement": "relative viability", "setting": "NCI-H838; first compound 0.5 µM", "result": 0.942}, {"measurement": "relative viability", "setting": "SK-LU-1; first compound 0.005 µM", "result": 0.979}, {"measurement": "relative viability", "setting": "SK-LU-1; first compound 0.01581 µM", "result": 1.08}, {"measurement": "relative viability", "setting": "SK-LU-1; first compound 0.05 µM", "result": 1.34}, {"measurement": "relative viability", "setting": "SK-LU-1; first compound 0.1581 µM", "result": 0.813}, {"measurement": "relative viability", "setting": "SK-LU-1; first compound 0.5 µM", "result": 0.938}, {"measurement": "relative viability", "setting": "LOU-NH91; first compound 0.005 µM", "result": 0.934}, {"measurement": "relative viability", "setting": "LOU-NH91; first compound 0.01581 µM", "result": 0.941}, {"measurement": "relative viability", "setting": "LOU-NH91; first compound 0.05 µM", "result": 0.981}, {"measurement": "relative viability", "setting": "LOU-NH91; first compound 0.1581 µM", "result": 0.933}, {"measurement": "relative viability", "setting": "LOU-NH91; first compound 0.5 µM", "result": 1}, {"measurement": "relative viability", "setting": "NCI-H1793; first compound 0.005 µM", "result": 0.778}, {"measurement": "relative viability", "setting": "NCI-H1793; first compound 0.01581 µM", "result": 0.954}, {"measurement": "relative viability", "setting": "NCI-H1793; first compound 0.05 µM", "result": 0.774}, {"measurement": "relative viability", "setting": "NCI-H1793; first compound 0.5 µM", "result": 1.19}, {"measurement": "relative viability", "setting": "NCI-H2085; first compound 0.005 µM", "result": 0.917}, {"measurement": "relative viability", "setting": "NCI-H2085; first compound 0.01581 µM", "result": 0.854}, {"measurement": "relative viability", "setting": "NCI-H2085; first compound 0.05 µM", "result": 1.06}, {"measurement": "relative viability", "setting": "NCI-H2085; first compound 0.1581 µM", "result": 0.781}, {"measurement": "relative viability", "setting": "NCI-H2085; first compound 0.5 µM", "result": 0.877}, {"measurement": "relative viability", "setting": "NCI-H358; first compound 0.005 µM", "result": 0.765}, {"measurement": "relative viability", "setting": "NCI-H358; first compound 0.01581 µM", "result": 0.849}, {"measurement": "relative viability", "setting": "NCI-H358; first compound 0.05 µM", "result": 0.718}, {"measurement": "relative viability", "setting": "NCI-H358; first compound 0.1581 µM", "result": 0.695}, {"measurement": "relative viability", "setting": "NCI-H358; first compound 0.5 µM", "result": 0.782}, {"measurement": "relative viability", "setting": "NCI-H441; first compound 0.005 µM", "result": 0.588}, {"measurement": "relative viability", "setting": "NCI-H441; first compound 0.01581 µM", "result": 0.56}, {"measurement": "relative viability", "setting": "NCI-H441; first compound 0.05 µM", "result": 0.559}, {"measurement": "relative viability", "setting": "NCI-H441; first compound 0.1581 µM", "result": 0.481}, {"measurement": "relative viability", "setting": "NCI-H441; first compound 0.5 µM", "result": 0.559}, {"measurement": "relative viability", "setting": "NCI-H1651; first compound 0.005 µM", "result": 0.929}, {"measurement": "relative viability", "setting": "NCI-H1651; first compound 0.01581 µM", "result": 0.988}, {"measurement": "relative viability", "setting": "NCI-H1651; first compound 0.05 µM", "result": 0.87}, {"measurement": "relative viability", "setting": "NCI-H1651; first compound 0.1581 µM", "result": 0.949}, {"measurement": "relative viability", "setting": "NCI-H1651; first compound 0.5 µM", "result": 0.963}, {"measurement": "relative viability", "setting": "HCC-366; first compound 0.005 µM", "result": 0.475}, {"measurement": "relative viability", "setting": "HCC-366; first compound 0.01581 µM", "result": 0.57}, {"measurement": "relative viability", "setting": "HCC-366; first compound 0.05 µM", "result": 0.712}, {"measurement": "relative viability", "setting": "HCC-366; first compound 0.1581 µM", "result": 0.516}, {"measurement": "relative viability", "setting": "HCC-366; first compound 0.5 µM", "result": 0.606}, {"measurement": "relative viability", "setting": "LU99A; first compound 0.005 µM", "result": 0.517}, {"measurement": "relative viability", "setting": "LU99A; first compound 0.01581 µM", "result": 0.506}, {"measurement": "relative viability", "setting": "LU99A; first compound 0.05 µM", "result": 0.581}, {"measurement": "relative viability", "setting": "LU99A; first compound 0.5 µM", "result": 0.534}]}
